The source of these data is patent publication US20040198731A1, “Aminoalkyl-substituted aromatic bicyclic compounds, methods for their preparation and their use as pharmaceuticals” (Aventis Pharma Deutschland GmbH, priority 2001, published 2004).

The target in the experiment is T1, human MCH receptor (Homo sapiens, UniProt Q99705).
T1 construct: expressed in transfected cells
As to the kind of experiment: Functional measurement of cellular calcium flow (FLIPR) in recombinant HEK293 cells expressing human MCH receptor. The note with it: cellular assay, calcium flow after addition of agonist (MCH), HEK293 (PEAK Stable Cells) expressing human MCH receptor. Type of experiment: cell-based. An excerpt: In two simultaneously published articles in Nature (Nature, 400:261-264, 1999; Nature, 400:265-269, 1999, see enclosure), two groups separately described a highly specific receptor for melanin-concentrating hormone (MCH). MCH takes over important functions in the control of food intake. Compounds acting on the MCH receptor therefore have anorectic action and are suitable for the treatment of obesity. The test for anorectic action of the inventive compounds of formula I was therefore carried out as follows.
Functional measurements for determination of IC50
Cloning of the cDNA for human MCH receptor, preparation of a recombinant HEK293 cell line expressing human MCH receptor and functional measurements with said recombinant cell line were carried out according to the description by Audinot et al. (J. Biol. Chem., 276, 13554-13562, 2001). In contrast to the reference, however, plasmid pEAK8 from EDGE Biosystems (USA) was used for constructing the expression vector. A transformed HEK cell line named “PEAK Stable Cells” (likewise from EDGE Biosystems) served as host for transfection. The functional measurements of cellular calcium flow, after addition of agonists (MCH), in the presence of the ligand of the invention was carried out with the aid of the FLIPR instrument from Molecular Devices (USA), using the manufacturer's protocols.

T1 sequence (Q99705 whole entry): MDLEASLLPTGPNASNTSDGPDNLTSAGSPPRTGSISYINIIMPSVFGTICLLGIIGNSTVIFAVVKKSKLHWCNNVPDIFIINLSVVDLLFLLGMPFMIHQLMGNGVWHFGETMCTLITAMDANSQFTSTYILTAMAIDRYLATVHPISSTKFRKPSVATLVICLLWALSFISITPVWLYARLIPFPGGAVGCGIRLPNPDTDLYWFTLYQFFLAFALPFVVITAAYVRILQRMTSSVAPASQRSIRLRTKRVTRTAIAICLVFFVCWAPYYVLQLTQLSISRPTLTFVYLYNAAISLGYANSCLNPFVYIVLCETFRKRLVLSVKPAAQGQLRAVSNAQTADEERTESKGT

Turning to `Cc1nc2cc(NC(=O)Nc3ccc(Oc4ccccc4)cc3)ccc2n1CCN1CCCCC1` [Example 15, 1-[2-Methyl-1-(2-piperidin-1-ylethyl)-1H-benzoimidazol-5-yl]-3-(4-phenoxyphenyl) urea], the IC50 (in general, the midpoint of a concentration-inhibition curve) turned out to be 180 nM. In the case of `CN(C)CCn1ccc2cc(NC(=O)Nc3ccc(OCc4ccccc4)cc3)ccc21` [Example 80, 1-(4-Benzyloxyphenyl)-3-[1-(2-di-methylaminoethyl)-1H-in-dol-5-yl]urea] it was 3360 nM; in that of `Cc1nc2cc(NC(=O)Nc3ccc(OC(C)C)cc3)ccc2n1CCN1CCOCC1` [Example 8, 1-(4-Isopropoxyphenyl)-3-[2-methyl-1-(2-morpholin-4-yl-ethyl)-1H-benzoimidazol-5-yl]urea], 1900 nM. Consider `CN(C)CCn1ccc2cc(NC(=O)Nc3ccc(Oc4ccccc4Cl)cc3)ccc21` [Example 105, 1-[4-(2-Chloro-phenoxy)-phenyl]-3-[1-(2-di-methylaminoethyl)-1H-in-dol-5-yl]urea], for which the IC50 is 1000 nM. Regarding `COc1cccc(Oc2ccc(NC(=O)Nc3ccc4c(ccn4CCN(C)C)c3)cc2)c1` [Example 109, 1-[1-(2-Dimethyl-aminoethyl)-1H-indol-5-yl]-3-[4-(3-meth-oxyphenoxy)-phenyl]urea], the IC50 was found to be 1290 nM. As to `CC1CCN(c2ccc(NC(=O)Nc3ccc4c(ccn4CCN(C)C)c3)cc2)CC1` [Example 33, 1-[1-(2-Di-methylaminoethyl)-1H-in-dol-5-yl]-3-[4-(4-methyl-piperidin-1-yl)phe-nyl]urea], the IC50 was found to be 1240 nM. In the case of `CN(C)CCn1ccc2cc(NC(=O)Nc3ccc(Oc4cccc(C(F)(F)F)c4)cc3)ccc21` [Example 86, 1-[1-(2-Di-methylaminoethyl)-1H-in-dol-5-yl]-3-[4-(3-tri-fluoromethyl-phenoxy)phenyl]urea], the IC50 came out at 2780 nM. In the case of `CCN1CCCC1Cn1c(C)nc2cc(NC(=O)Nc3ccc(OC(C)C)cc3)ccc21` (centres unmarked) [Example 6, 1-[1-(1-Ethylpyrrolidin-2-ylmethyl)-2-methyl-1H-benzoimidazol-5-yl]-3-(4-isopropoxyphenyl)urea] it was 2340 nM; in that of `CCc1nc2cc(NC(=O)Nc3ccc(Oc4ccccc4)cc3)ccc2n1CCN1CCCC1` [Example 14, 1-[2-Ethyl-1-(2-pyrrolidin-1-ylethyl)-1H-benzoimidazol-5-yl]-3-(4-phenoxyphenyl)urea], 300 nM.

Turning to `Cc1ccc(Oc2ccc(NC(=O)Nc3ccc4c(ccn4CCN(C)C)c3)cc2)cc1` [Example 84, 1-[1-(2-Di-methylaminoethyl)-1H-in-dol-5-yl]-3-(4-p-tolyl-oxyphenyl)urea], the IC50 came out at 400 nM. Take `CN(C)Cc1nc2cc(NC(=O)Nc3ccc(Oc4ccccc4)cc3)ccc2[nH]1` [Example 17, 1-(2-Dimethylaminomethyl-1H-benzoimidazol-5-yl)-3-(4-phenoxyphenyl)urea]: the IC50 was 2140 nM. Regarding `Cc1cccc(Oc2ccc(NC(=O)Nc3ccc4c(ccn4CCN(C)C)c3)cc2)c1` [Example 107, 1-[1-(2-Di-methylaminoethyl)-1H-in-dol-5-yl]-3-(4-m-tolyl-oxyphenyl)urea], the IC50 came out at 1000 nM. In the case of `CCCCc1ccc(NC(=O)Nc2ccc3c(ccn3CCN(C)C)c2)cc1` [Example 71, 1-(4-Butylphenyl)-3-[1-(2-di-methylaminoethyl)-1H-in-dol-5-yl]urea] it was 2650 nM; in that of `CC(C)COc1ccc(NC(=O)Nc2ccc3c(ccn3CCN(C)C)c2)cc1F` [Example 65, 1-[1-(2-Dimethyl-aminoethyl)-1H-in-dol-5-yl]-3-(3-fluoro-4-iso-butoxyphenyl)urea], 500 nM. On to `Cc1ccccc1Oc1ccc(NC(=O)Nc2ccc3c(ccn3CCN(C)C)c2)cc1` [Example 108, 1-[1-(2-Di-methylaminoethyl)-1H-in-dol-5-yl]-3-(4-o-tolyl-oxyphenyl)urea], for which the IC50 turned out to be 430 nM.

For `Cc1nc2cc(NC(=O)Nc3ccc(OC(C)C)cc3)ccc2n1CCN(C)C` [Example 5, 1-[1-(2-Dimethylaminoethyl)-2-methyl-1H-benzoimidazol-5-yl]-3-(4-isopropoxyphenyl)urea], the IC50 came to 500 nM. Take `CN(C)CCn1ccc2cc(NC(=O)Nc3ccc(-c4ccc(F)cc4)cc3)ccc21` [Example 81, 1-[1-(2-Di-methylaminoethyl)-1H-in-dol-5-yl]-3-(4′-fluoro-biphenyl-4-yl)urea]: the IC50 stood at 2690 nM. Under `CN(C)CCn1ccc2cc(NC(=O)Nc3ccc(-c4ccccc4)cc3)ccc21` [Example 78, 1-Biphenyl-4-yl-3-[1-(2-di-methylaminoethyl)-1H-in-dol-5-yl]urea] stands 2750 nM; under `CN(C)CCn1ccc2cc(NC(=O)Nc3ccc(Oc4cccnc4)cc3)ccc21` [Example 73, 1-[1-(2-Dimethyl-aminoethyl)-1H-in-dol-5-yl]-3-[4-(py-ridin-3-yloxy)phe-nyl]urea], 140 nM; under `CN(C)CCn1ccc2cc(NC(=O)Nc3ccc(N4CC=CCC4)cc3)ccc21` [Example 24, 1-[4-(3,6-Dihydro-2H-py-ridin-1-yl)phenyl]-3-[1-(2-di-methylaminoethyl)-1H-in-dol-5-yl]urea], 860 nM. On to `CCN1CCCC1Cn1c(C)nc2cc(NC(=O)Nc3ccc(Oc4ccccc4)cc3)ccc21` (centres unmarked) [Example 16, 1-[1-(1-Ethylpyrrolidin-2-ylmethyl)-2-methyl-1H-benzoimidazol-5-yl]-3-(4-phenoxy-phenyl)urea], for which the IC50 turned out to be 330 nM. Regarding `Cc1nc2cc(NC(=O)Nc3ccc(Oc4ccccc4)cc3)ccc2n1CCN1CCCC1` [Example 9], the IC50 was 100 nM. Under `Cc1c(C)n(CCN(C)C)c2ccc(NC(=O)Nc3ccc(Oc4ccccc4)cc3)cc12` [Example 18, 1-[1-(2-Dimethylaminoethyl)-2,3-dimethyl-1H-indol-5-yl]-3-(4-phenoxyphenyl)urea] stands 1040 nM. Under `CC(C)COc1ccc(NC(=O)Nc2ccc3c(ccn3CCN(C)C)c2)cc1` [Example 72, 1-[1-(2-Dimethyl-aminoethyl)-1H-in-dol-5-yl]-3-(4-iso-butoxyphenyl)urea] stands 320 nM; under `Cc1nc2cc(NC(=O)Nc3ccc(Oc4ccccc4)cc3)ccc2n1CCN(C)C` [Example 10, 1-[2-Methyl-1-(2-dimethylaminoethyl)-1H-benzoimidazol-5-yl]-3-(4-phenoxyphenyl)urea], 110 nM; under `O=C(Nc1ccc(Oc2ccccc2)cc1)Nc1ccc2c(c1)ncn2CCN1CCCC1` [Example 11, 1-(4-Phenoxyphenyl)-3-[1-(2-pyrrolidin-1-ylethyl)-1H-benzoimidazol-5-yl]urea], 140 nM. In the case of `CN(C)CCn1ccc2cc(NC(=O)Nc3ccc(N4CCSCC4)cc3)ccc21` [Example 26, 1-[1-(2-Di-methylaminoethyl)-1H-in-dol-5-yl]-3-(4-thio-morpholin-4-yl-phe-nyl)urea] it was 920 nM; in that of `CC(C)COc1ccc(NC(=O)Nc2ccc3c(ccn3CCN(C)C)c2)c(F)c1` [Example 63, 1-[1-(2-Dimethyl-aminoethyl)-1H-in-dol-5-yl]-3-(2-fluoro-4-iso-butoxyphenyl)urea], 570 nM. With `COc1cc(Nc2ccccc2)ccc1NC(=O)Nc1ccc2c(ccn2CCN(C)C)c1` [Example 79, 1-[1-(2-Dimethyl-aminoethyl)-1H-indol-5-yl]-3-(2-meth-oxy-4-phenyl-aminophenyl)-urea], the IC50 came out at 2130 nM.
